Each block holds one molecule with its values, some of them ahead of it.
Columns and labels:
[1] = target: T1, DNA topoisomerase 2-alpha (Homo sapiens, UniProt P11388); assay: Inhibition of human DNA topoisomerase IIalpha using plasmid pNO1 as a substrate after 30 mins
[2] = target: T1, DNA topoisomerase 2-alpha; assay: Inhibition of human DNA topoisomerase IIalpha assessed as reduction in enzyme-catalyzed supercoiling of relaxed circular pBR322 DNA by measuring linear DNA level at 31.5 uM after 60 mins by agarose gel electrophoresis in presence of 50 uM of etoposide; set-up: scale not given: the % may be the effect or the level left
[3] = target: T1, DNA topoisomerase 2-alpha; assay: Inhibition of human DNA topoisomerase IIalpha assessed as decatenation of kDNA at 500 uM after 90 mins by ethidium bromide staining; set-up: scale not given: the % may be the effect or the level left
[4] = target: T1, DNA topoisomerase 2-alpha; assay: Inhibition of human DNA topoisomerase IIalpha assessed as reduction in enzyme-catalyzed supercoiling of relaxed circular pBR322 DNA by measuring linear DNA level at 3.9 uM after 60 mins by agarose gel electrophoresis in presence of 50 uM of etoposide; set-up: scale not given: the % may be the effect or the level left
[5] = target: T1, DNA topoisomerase 2-alpha; assay: Inhibition of human DNA topoisomerase IIalpha assessed as decatenation of kDNA at 31.5 uM after 90 mins by ethidium bromide staining; set-up: scale not given: the % may be the effect or the level left
[6] = target: T1, DNA topoisomerase 2-alpha; assay: Inhibition of human DNA topoisomerase IIalpha assessed as reduction in enzyme-catalyzed supercoiling of relaxed circular pBR322 DNA by measuring linear DNA level at 125 uM after 60 mins by agarose gel electrophoresis in presence of 50 uM of etoposide; set-up: scale not given: the % may be the effect or the level left
[7] = target: T1, DNA topoisomerase 2-alpha; assay: Inhibition of human DNA topoisomerase IIalpha assessed as reduction in enzyme-catalyzed supercoiling of relaxed circular pBR322 DNA by measuring linear DNA level at 3.9 uM after 60 mins by agarose gel electrophoresis; set-up: scale not given: the % may be the effect or the level left
[8] = target: T1, DNA topoisomerase 2-alpha; assay: Inhibition of human DNA topoisomerase IIalpha assessed as reduction in enzyme-catalyzed supercoiling of relaxed circular pBR322 DNA by measuring linear DNA level at 500 uM after 60 mins by agarose gel electrophoresis; set-up: scale not given: the % may be the effect or the level left
[9] = target: T1, DNA topoisomerase 2-alpha; assay: Inhibition of human DNA topoisomerase IIalpha assessed as decatenation of kDNA at 62.5 uM after 90 mins by ethidium bromide staining; set-up: scale not given: the % may be the effect or the level left
[10] = target: T1, DNA topoisomerase 2-alpha; assay: Inhibition of human DNA topoisomerase IIalpha assessed as reduction in enzyme-catalyzed supercoiling of relaxed circular pBR322 DNA by measuring linear DNA level after 60 mins by agarose gel electrophoresis
[11] = target: T1, DNA topoisomerase 2-alpha; assay: Inhibition of human DNA topoisomerase IIalpha assessed as reduction in enzyme-catalyzed supercoiling of relaxed circular pBR322 DNA by measuring linear DNA level at 31.5 uM after 60 mins by agarose gel electrophoresis; set-up: scale not given: the % may be the effect or the level left
[12] = Lipophilicity, log P of the compound; format: physicochemical; conditions: octanol/water
[13] = target: T1, DNA topoisomerase 2-alpha; assay: Inhibition of human DNA topoisomerase IIalpha assessed as decatenation of kDNA after 90 mins by ethidium bromide staining
[14] = target: T1, DNA topoisomerase 2-alpha; assay: Inhibition of human DNA topoisomerase IIalpha assessed as reduction in enzyme-catalyzed supercoiling of relaxed circular pBR322 DNA by measuring linear DNA level at 125 uM after 60 mins by agarose gel electrophoresis; set-up: scale not given: the % may be the effect or the level left
[15] = target: T1, DNA topoisomerase 2-alpha; assay: Inhibition of human DNA topoisomerase IIalpha assessed as decatenation of kDNA at 125 uM after 90 mins by ethidium bromide staining; set-up: scale not given: the % may be the effect or the level left
[16] = target: T1, DNA topoisomerase 2-alpha; assay: Inhibition of human DNA topoisomerase IIalpha assessed as decatenation of kDNA at 3.9 uM after 90 mins by ethidium bromide staining; set-up: scale not given: the % may be the effect or the level left
[17] = target: T1, DNA topoisomerase 2-alpha; assay: Inhibition of human DNA topoisomerase IIalpha assessed as reduction in enzyme-catalyzed supercoiling of relaxed circular pBR322 DNA by measuring linear DNA level at 500 uM after 60 mins by agarose gel electrophoresis in presence of 50 uM of etoposide; set-up: scale not given: the % may be the effect or the level left
[18] = target: T1, DNA topoisomerase 2-alpha; assay: Inhibition of human DNA topoisomerase IIalpha assessed as decatenation of kDNA at 15.625 uM after 90 mins by ethidium bromide staining; set-up: scale not given: the % may be the effect or the level left
[19] = target: T1, DNA topoisomerase 2-alpha; assay: Inhibition of human DNA topoisomerase IIalpha ATPase activity assessed as residual ATP hydrolysis at 125 uM measured up to 60 mins
[20] = target: T1, DNA topoisomerase 2-alpha; assay: Inhibition of human DNA topoisomerase IIalpha ATPase activity assessed as residual ATP hydrolysis at 3.9 uM measured up to 60 mins
[21] = target: T1, DNA topoisomerase 2-alpha; assay: Inhibition of human DNA topoisomerase IIalpha ATPase activity assessed as residual ATP hydrolysis at 500 uM measured up to 60 mins
[22] = target: T1, DNA topoisomerase 2-alpha; assay: Inhibition of human DNA topoisomerase IIalpha assessed as reduction in enzyme-catalyzed supercoiling of relaxed circular pBR322 DNA by measuring linear DNA level at 50 uM after 60 mins by agarose gel electrophoresis; set-up: scale not given: the % may be the effect or the level left
[23] = target: T1, DNA topoisomerase 2-alpha; assay: Inhibition of human DNA topoisomerase IIalpha assessed as reduction in enzyme-catalyzed supercoiling of relaxed circular pBR322 DNA by measuring linear DNA level at 62.5 uM after 60 mins by agarose gel electrophoresis; set-up: scale not given: the % may be the effect or the level left
[24] = target: T1, DNA topoisomerase 2-alpha; assay: Inhibition of human DNA topoisomerase IIalpha ATPase activity assessed as residual ATP hydrolysis at 31.5 uM measured up to 60 mins

T1 sequence (P11388 whole entry): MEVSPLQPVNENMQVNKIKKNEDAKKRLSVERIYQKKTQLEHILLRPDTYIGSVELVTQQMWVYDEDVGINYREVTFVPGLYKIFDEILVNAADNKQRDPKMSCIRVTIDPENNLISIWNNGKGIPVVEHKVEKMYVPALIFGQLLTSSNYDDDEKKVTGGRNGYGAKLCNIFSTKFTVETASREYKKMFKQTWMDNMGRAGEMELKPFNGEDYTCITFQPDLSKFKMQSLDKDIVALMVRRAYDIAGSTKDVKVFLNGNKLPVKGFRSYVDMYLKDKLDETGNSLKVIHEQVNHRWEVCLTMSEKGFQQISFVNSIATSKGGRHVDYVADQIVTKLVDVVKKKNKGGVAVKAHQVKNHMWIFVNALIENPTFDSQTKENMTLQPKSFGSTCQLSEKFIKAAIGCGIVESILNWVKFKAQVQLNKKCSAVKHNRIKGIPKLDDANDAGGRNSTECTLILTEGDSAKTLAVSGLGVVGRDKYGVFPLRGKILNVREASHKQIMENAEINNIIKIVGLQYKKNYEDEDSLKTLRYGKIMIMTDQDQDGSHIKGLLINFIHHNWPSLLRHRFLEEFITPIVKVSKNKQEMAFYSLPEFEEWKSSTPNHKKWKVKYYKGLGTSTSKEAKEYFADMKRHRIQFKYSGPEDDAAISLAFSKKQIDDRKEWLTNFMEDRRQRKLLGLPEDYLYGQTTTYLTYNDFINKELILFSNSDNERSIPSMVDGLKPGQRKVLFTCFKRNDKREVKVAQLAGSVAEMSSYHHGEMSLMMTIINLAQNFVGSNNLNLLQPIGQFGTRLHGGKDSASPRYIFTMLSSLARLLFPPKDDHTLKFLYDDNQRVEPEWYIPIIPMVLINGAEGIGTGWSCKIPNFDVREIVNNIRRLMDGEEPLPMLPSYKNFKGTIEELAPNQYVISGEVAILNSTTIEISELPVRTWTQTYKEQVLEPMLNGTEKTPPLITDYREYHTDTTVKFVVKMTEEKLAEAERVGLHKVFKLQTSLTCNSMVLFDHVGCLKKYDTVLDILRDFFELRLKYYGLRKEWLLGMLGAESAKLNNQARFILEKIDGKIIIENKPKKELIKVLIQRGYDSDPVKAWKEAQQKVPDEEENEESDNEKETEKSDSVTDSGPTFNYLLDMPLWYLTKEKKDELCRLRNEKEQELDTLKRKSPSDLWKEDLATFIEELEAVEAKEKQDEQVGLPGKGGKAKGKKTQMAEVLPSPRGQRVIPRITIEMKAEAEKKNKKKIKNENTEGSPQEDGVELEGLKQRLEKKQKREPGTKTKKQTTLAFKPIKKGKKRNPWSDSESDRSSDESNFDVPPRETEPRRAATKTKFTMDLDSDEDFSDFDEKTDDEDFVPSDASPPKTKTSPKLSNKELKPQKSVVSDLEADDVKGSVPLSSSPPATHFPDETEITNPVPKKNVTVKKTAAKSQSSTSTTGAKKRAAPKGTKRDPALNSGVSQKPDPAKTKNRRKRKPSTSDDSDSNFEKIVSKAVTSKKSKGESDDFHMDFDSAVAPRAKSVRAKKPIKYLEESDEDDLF

SMILES: CN(CCO)c1nc(Cl)nc(Nc2ccccc2CCO)n1
IC50 [1]: > 1000 µM

SMILES: CC(C)(C)c1ccccc1Nc1nc(Cl)nc(Cl)n1
IC50 [1]: > 1000 µM

SMILES: COc1ccc(CNc2nc(Cl)nc(N(C)CCO)n2)cc1
IC50 [1]: > 1000 µM

SMILES: COC(=O)c1ccccc1Oc1nc(OC)nc(OC)n1
IC50 [1]: > 1000 µM

SMILES: Cc1ccc(-c2nc(S)[nH]c(=O)n2)cc1
IC50 [1]: > 1000 µM

SMILES: COc1ccc(CCNc2nc(Cl)nc(Cl)n2)cc1OC
IC50 [1]: > 1000 µM

SMILES: COc1nc(Nc2ccccc2C(=O)O)nc(OC)n1
IC50 [1]: > 1000 µM

SMILES: Nc1ccc(-c2nc(=S)[nH]c(=O)[nH]2)cc1
IC50 [1]: > 1000 µM

SMILES: CC(C)OC(=O)C(C)NC(=O)c1ccc(Nc2nc(Cl)nc(Cl)n2)cc1 (stereo not given)
IC50 [1]: > 1000 µM

SMILES: COc1cc([C@@H]2c3cc4c(cc3[C@@H](O[C@@H]3O[C@@H]5CO[C@@H](C)O[C@H]5[C@H](O)[C@H]3O)[C@H]3COC(=O)[C@H]23)OCO4)cc(OC)c1O
Activity [3]: 3.25% | Activity [5]: 68.8% | Activity [19]: 31.8% | Activity [7]: 12.4% | Activity [20]: 65.4% | Activity [8]: 32.5% | Activity [21]: 18.7% | Activity [11]: 34.3% | Activity [14]: 36.1% | Activity [15]: 14.2% | Activity [22]: 34.6% | Activity [23]: 18.1% | Activity [16]: 88.3% | Activity [24]: 45.8%

Second part, the molecule after the results:

IC50 [1]: 481 µM
SMILES: O=c1nc(SCc2ccccc2)nc(SCC2CC2)[nH]1

IC50 [1]: 219 µM
SMILES: O=c1nc(SCc2ccccc2)nc(SCc2ccc(Cl)cc2)[nH]1

IC50 [1]: > 1000 µM
SMILES: OCCc1ccccc1Nc1nc(Cl)nc(NCc2ccccc2)n1

IC50 [1]: 522 µM
SMILES: N#Cc1ccccc1CSc1nc(SCc2ccccc2)nc(=O)[nH]1

IC50 [1]: 528 µM
SMILES: N#Cc1cccc(CSc2nc(SCc3ccccc3)nc(=O)[nH]2)c1

IC50 [1]: 485 µM
SMILES: COc1cccc(CSc2nc(SCc3ccccc3)nc(=O)[nH]2)c1

IC50 [1]: > 1000 µM
SMILES: O=c1nc(SCc2ccccc2)nc(SCC2CCCCC2)[nH]1

IC50 [1]: 359 µM
SMILES: O=c1nc(SCc2ccccc2)nc(SCc2ccc([N+](=O)[O-])cc2)[nH]1

IC50 [1]: > 1000 µM
SMILES: O=c1nc(-c2ccccc2)nc(S)[nH]1

IC50 [1]: 486 µM
SMILES: N#Cc1ccc(CSc2nc(SCc3ccccc3)nc(=O)[nH]2)c(F)c1

IC50 [1]: 377 µM
SMILES: O=c1nc(SCc2ccccc2)nc(SCc2ccccc2[N+](=O)[O-])[nH]1

IC50 [1]: 153 µM
SMILES: N#Cc1ccc(CSc2nc(SCc3ccccc3)nc(=O)[nH]2)cc1

Activity [2]: 33.5% | Activity [3]: 0% | Activity [4]: 34.3% | Activity [5]: 33.9% | Activity [6]: 9.2% | Activity [7]: 4.4% | Activity [8]: 2.5% | Activity [9]: 6.05% | inhibition [10]: Dose-dependent effect | Activity [11]: 1.2% | logP [12]: 3.3 | inhibition [13]: Dose-dependent effect | Activity [14]: 3.5% | Activity [15]: 0% | IC50 [1]: 54.6 µM | Activity [16]: 87.3% | Activity [17]: 5.3% | Activity [18]: 18.2%
SMILES: O=c1nc(SCc2ccccc2)nc(SCc2cccc(Cl)c2)[nH]1

IC50 [1]: > 1000 µM
SMILES: COc1nc(OC)nc(Sc2ccccc2C(=O)O)n1

IC50 [1]: 235 µM
SMILES: CCCCSc1nc(SCc2ccccc2)nc(=O)[nH]1

Reference: ChEMBL document CHEMBL3593218, “4,6-Substituted-1,3,5-triazin-2(1H)-ones as monocyclic catalytic inhibitors of human DNA topoisomerase IIα targeting the ATP binding site” (Bioorg Med Chem, 2015)
